Activity calls are given as the source filed them.
Experiments:
[1] = target: Serine/threonine-protein phosphatase PP1-alpha catalytic subunit (Homo sapiens, UniProt P62136); assay: PP1 phosphatase inhibitors, dose response, biochemical, fluorescence (AID 2394)
[2] = target: Serine/threonine-protein phosphatase (Homo sapiens, UniProt Q9BPW0); assay: PP5 phosphatase inhibitors, dose response, biochemical, fluorescence (AID 2395)
[3] = system: H4; assay: Luminescence Cell-Based Dose Response HTS to Identify Activators of 5'UTR Stem-Loop Driven Prion Protein mRNA Translation in H4 Neuroglioblastoma Cells. [Related pubchem assays: 1829 (Project Summary), 1814 (Primary HTS)]; format: functional; conditions: Homo sapiens
[4] = Luminescence Cell-Based Dose Response HTS to Identify Activators of Luciferase Translation or Activity in H4 […] Cells. [Related pubchem assays: 1829 (Project Summary), 1814 (Primary HTS)]; format: functional
[5] = Luminescence Cell-Based Dose Confirmation HTS to Identify Activators of 5'UTR Stem-Loop Driven Alpha-Synuclein mRNA Translation in H4 Neuroglioblastoma Cells. [Related pubchem assays: 1829 (Project Summary), 1814 (Primary HTS)]; format: functional
[6] = target: C-C chemokine receptor type 6 (Homo sapiens, UniProt P51684); assay: CCR6 receptor antagonists, dose response, cell-based, luminescent beta-arrestin readout (AID 504728); format: functional
[7] = target: Beta-galactosidase (Escherichia coli, UniProt Q8VNN2); assay: beta-galactosidase enzyme inhibitors and activators, dose response, artefact control for CCR6 antagonist project, biochemical, E. coli enzyme, set 3 (AID 504712); format: functional
[8] = system: BJ; assay: cytotoxicity toward BJ-TERT-LT-ST fibroblasts, dose response, cell-based, RAS-independent, luminescence (AID 1935); format: functional; conditions: Homo sapiens;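 further: BJ fibroblasts immortalized with TERT plus LT and ST oncogenes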
[9] = target: T1, SUMO-activating enzyme (Homo sapiens, UniProt Q9UBT2); assay: inhibitors of in vitro SUMOylation cascade, primary screen, biochemical, HTRF, uHTS (AID 2006); format: protein-complex assay
[10] = target: T1, SUMO-activating enzyme; assay: SUMOylation inhibitor hit validation, confirmation, SUMOylation inhibitor project, biochemical, AlphaScreen (AID 2018); format: functional
[11] = target: Galanin receptor type 2 (Homo sapiens, UniProt O43603); assay: Dose Response cell-based high-throughput screening assay to identify agonists of galanin receptor 2 (GALR2). [Related pubchem assays: 864 ]; format: functional
[12] = system: BJ; assay: cells; format: functional, cell-based; conditions: Homo sapiens
[13] = cytotoxicity toward DRD oncogenic fibroblasts, dose response, cell-based, non-viral oncogenic, luminescence (AID 1934); format: functional; conditions: Homo sapiens
[14] = system: BJ; assay: cytotoxicity toward BJ-TERT fibroblasts, dose response, cell-based, RAS-independent, luminescence (AID 1933); format: functional; conditions: Homo sapiens
[15] = target: T2, Bcl-2-related protein A1 (Mus musculus, UniProt Q07440); assay: Bfl-1 inhibitors blocking BH3 peptide binding, confirmation, biochemical, TR-FRET, mouse Bfl-1 (AID 621);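 further: TR-FRET binding of GST-Bfl-1 to FITC-labelled Bid peptide via terbium antibody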
T2 sequence (Q07440 whole entry): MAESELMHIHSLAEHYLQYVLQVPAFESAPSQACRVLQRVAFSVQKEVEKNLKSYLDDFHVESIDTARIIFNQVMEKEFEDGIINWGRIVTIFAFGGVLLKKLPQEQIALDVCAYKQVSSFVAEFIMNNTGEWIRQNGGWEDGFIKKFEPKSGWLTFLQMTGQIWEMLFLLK

[16] = target: T2, Bcl-2-related protein A1; assay: Bfl-1 binding inhibitors, SAR follow-up, biochemical, fluorescence polarization (AID 1070)
[17] = system: HeLa; assay: HeLa cell cytotoxicity, dose response, cytotoxicity control, 24 h, cherry-picked samples (AID 504726); format: functional, cell-based; conditions: Homo sapiens;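 further: potency for cytotoxicity as loss of luminescence signal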
[18] = target: Neuropeptide Y receptor type 1 (Homo sapiens, UniProt P25929); assay: Fluorescence-based counterscreen for agonists of NPY-Y2: cell-based high-throughput dose response assay for agonists of NPY-Y1.; format: functional
[19] = system: Vero; assay: Vero cell cytotoxicity, cytotoxicity control for flavivirus capping enzyme inhibitors (AID 588742); format: functional; conditions: Chlorocebus sabaeus
[20] = target: Neuropeptide Y receptor type 2 (Homo sapiens, UniProt P49146); assay: Fluorescence-based cell-based high-throughput dose response assay for agonists of NPY-Y2. [Related pubchem assays: 1703 (Screening assay (CNGC inhibitors).), 1359 (Screening assay (NPY-Y2 potentiators or agonists).), 1304 (Screening assay (NPY-Y1 potentiators or agonists).), 1710 (Screening assay (NPY-Y2 agonists).), 1791 (Summary AID.)]; format: functional
[21] = system: HEK293; assay: Fluorescence-based counterscreen for potentiators or agonists of NPY-Y2: cell-based high-throughput dose response assay to identify inhibitors of cyclic nucleotide gated ion channel (CNGC) activity. In this assay, the parental HEK293 cell line transfected with a cyclic-nucleotide gated ion channel (CNGC)-based cAMP sensor is used to measure inhibition of isoproterenol-induced CNGC activity by test compound.; format: functional; conditions: Homo sapiens;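 further: stimulus is 1 µM isoproterenol at EC100 plus PDE inhibitor Ro 20-1724 at 25 µM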
[22] = target: Melanin-concentrating hormone receptor 1 (Homo sapiens, UniProt Q99705); assay: Fluorescence-based counterscreen for antagonists of the G-protein coupled receptor 7 (GPR7): cell-based high throughput dose response assay to identify antagonists of the melanin-concentrating hormone receptor 1 (MCHR1).; format: functional
[23] = target: Vasopressin V1a receptor (Homo sapiens, UniProt P37288); assay: Counterscreen for Oxytocin Receptor (OXTR) agonists: Fluorescence-based cell-based high throughput dose response assay to identify agonists of the vasopressin 1 receptor (V1R). [Related pubchem assays: 2435 (Primary screen (OXTR agonists in singlicate)), 434991 (Counterscreen (V1R agonists in triplicate)), 2482 (Summary (OXTR agonists)) …; format: functional
[24] = target: Oxytocin receptor (Homo sapiens, UniProt P30559); assay: Fluorescence-based cell-based high throughput dose response assay for agonists of the Oxytocin Receptor (OXTR). [Related pubchem assays: 2435 (Primary screen (OXTR agonists in singlicate)), 434991 (Counterscreen (V1R agonists in triplicate)), 2482 (Summary (OXTR agonists)), 434963 (Confirmation screen (OXTR agonists in triplicate))]; format: functional
[25] = inhibitors of Bluetongue virus cytopathic effect, confirmation, arbovirus, BSR cells (AID 1250); format: functional;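 further: protection from viral cytopathic effect measured as cell viability by ATP luminescence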
[26] = Counterscreen for IDE inhibitors: Luminescence-based cell-based high throughput dose response assay to identify compounds that are cytotoxic to HEK cells. [Related pubchem assays: 434962 (Primary screen (IDE inhibitors in singlicate)), 449730 (Counterscreen (Cytotoxicity in triplicate)), 435028 (Confirmation (IDE inhibitors in triplicate)) …; format: functional; conditions: HEK293
[27] = target: Dual specificity tyrosine-phosphorylation-regulated kinase 1A (Rattus norvegicus, UniProt Q63470); format: biochemical, Homo sapiens
[28] = target: T3, Insulin-degrading enzyme (Homo sapiens, UniProt P14735); assay: Dose Response: Fluorescence polarization-based cell-based high throughput dose response assay for inhibitors of insulin-degrading enzyme (IDE). [Related pubchem assays: 434962 (Primary screen (IDE inhibitors in singlicate)), 449730 (Counterscreen (Cytotoxicity in triplicate)), 435028 (Confirmation (IDE inhibitors in triplicate)), 434984 (Summary …; format: functional
T3 sequence (P14735 whole entry): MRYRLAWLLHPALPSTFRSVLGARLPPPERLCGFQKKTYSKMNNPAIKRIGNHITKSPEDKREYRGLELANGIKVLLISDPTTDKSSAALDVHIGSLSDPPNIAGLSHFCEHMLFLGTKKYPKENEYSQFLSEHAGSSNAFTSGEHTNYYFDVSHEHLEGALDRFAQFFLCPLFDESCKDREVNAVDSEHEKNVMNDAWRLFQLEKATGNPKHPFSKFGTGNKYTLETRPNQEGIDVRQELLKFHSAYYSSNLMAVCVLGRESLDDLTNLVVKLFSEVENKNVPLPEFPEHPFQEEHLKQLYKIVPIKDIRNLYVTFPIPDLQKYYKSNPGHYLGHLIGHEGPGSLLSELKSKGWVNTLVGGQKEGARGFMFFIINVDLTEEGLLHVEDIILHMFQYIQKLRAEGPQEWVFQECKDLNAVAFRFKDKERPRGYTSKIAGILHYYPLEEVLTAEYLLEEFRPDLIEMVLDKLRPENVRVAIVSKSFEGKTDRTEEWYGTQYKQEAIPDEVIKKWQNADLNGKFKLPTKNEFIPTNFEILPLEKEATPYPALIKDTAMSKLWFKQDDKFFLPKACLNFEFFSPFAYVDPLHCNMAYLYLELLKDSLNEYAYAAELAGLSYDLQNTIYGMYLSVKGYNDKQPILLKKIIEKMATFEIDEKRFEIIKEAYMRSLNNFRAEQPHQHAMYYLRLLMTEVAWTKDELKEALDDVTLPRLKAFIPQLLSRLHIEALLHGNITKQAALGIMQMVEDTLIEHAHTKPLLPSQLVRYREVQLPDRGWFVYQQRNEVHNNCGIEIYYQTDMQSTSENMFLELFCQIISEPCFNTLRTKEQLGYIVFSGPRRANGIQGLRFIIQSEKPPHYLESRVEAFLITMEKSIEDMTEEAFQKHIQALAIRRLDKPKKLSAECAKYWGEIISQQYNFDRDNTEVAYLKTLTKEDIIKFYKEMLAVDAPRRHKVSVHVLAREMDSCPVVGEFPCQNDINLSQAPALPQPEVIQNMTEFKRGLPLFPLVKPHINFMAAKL

T1 sequence (Q9UBE0 whole entry): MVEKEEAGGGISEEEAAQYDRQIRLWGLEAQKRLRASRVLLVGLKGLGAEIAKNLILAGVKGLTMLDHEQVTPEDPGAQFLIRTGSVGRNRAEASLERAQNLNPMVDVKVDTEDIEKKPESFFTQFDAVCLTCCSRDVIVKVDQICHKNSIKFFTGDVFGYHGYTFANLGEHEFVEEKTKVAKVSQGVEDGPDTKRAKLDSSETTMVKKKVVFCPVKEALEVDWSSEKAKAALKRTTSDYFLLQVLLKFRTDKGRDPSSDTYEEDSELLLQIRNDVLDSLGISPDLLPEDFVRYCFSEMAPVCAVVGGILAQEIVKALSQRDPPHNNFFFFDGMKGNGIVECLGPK
T1 sequence (Q9UBT2 whole entry): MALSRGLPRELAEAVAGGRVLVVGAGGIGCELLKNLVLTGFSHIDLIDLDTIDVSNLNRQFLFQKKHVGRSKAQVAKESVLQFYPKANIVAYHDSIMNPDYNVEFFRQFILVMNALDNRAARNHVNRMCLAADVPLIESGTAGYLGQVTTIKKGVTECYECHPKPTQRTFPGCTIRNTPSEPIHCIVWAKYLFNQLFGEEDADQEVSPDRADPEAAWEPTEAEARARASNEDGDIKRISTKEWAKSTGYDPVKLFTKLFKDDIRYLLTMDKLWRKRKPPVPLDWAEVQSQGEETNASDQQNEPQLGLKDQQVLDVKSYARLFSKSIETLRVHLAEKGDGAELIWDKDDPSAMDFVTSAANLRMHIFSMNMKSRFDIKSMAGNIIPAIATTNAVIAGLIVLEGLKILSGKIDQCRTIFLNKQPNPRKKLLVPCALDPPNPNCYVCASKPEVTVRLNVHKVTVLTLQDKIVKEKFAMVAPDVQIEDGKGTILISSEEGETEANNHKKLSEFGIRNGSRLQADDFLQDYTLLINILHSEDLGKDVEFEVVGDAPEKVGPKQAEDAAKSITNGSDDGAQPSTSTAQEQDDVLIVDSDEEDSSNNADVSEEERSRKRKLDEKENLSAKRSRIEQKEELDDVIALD
Sequence of Melanin-concentrating hormone receptor 1 (Q99705 whole entry): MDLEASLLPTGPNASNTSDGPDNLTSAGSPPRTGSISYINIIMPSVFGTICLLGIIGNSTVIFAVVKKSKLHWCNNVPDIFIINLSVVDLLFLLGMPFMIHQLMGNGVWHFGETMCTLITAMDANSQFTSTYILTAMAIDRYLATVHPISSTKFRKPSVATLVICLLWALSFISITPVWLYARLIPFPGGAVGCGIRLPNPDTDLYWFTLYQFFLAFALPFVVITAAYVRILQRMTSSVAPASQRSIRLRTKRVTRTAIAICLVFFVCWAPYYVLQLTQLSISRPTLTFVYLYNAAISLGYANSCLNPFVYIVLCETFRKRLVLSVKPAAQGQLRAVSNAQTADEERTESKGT
Sequence of Neuropeptide Y receptor type 2 (P49146 whole entry): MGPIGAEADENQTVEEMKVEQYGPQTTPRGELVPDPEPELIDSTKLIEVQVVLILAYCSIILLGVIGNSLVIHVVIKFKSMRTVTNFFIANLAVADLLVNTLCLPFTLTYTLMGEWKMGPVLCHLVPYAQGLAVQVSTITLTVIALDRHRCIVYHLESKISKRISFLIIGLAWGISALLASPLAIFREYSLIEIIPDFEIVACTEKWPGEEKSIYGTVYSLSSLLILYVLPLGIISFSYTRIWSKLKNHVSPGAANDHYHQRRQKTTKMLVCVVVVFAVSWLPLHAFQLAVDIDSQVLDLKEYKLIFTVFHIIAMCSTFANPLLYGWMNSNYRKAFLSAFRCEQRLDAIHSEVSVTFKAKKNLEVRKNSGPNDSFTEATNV
Sequence of C-C chemokine receptor type 6 (P51684 whole entry): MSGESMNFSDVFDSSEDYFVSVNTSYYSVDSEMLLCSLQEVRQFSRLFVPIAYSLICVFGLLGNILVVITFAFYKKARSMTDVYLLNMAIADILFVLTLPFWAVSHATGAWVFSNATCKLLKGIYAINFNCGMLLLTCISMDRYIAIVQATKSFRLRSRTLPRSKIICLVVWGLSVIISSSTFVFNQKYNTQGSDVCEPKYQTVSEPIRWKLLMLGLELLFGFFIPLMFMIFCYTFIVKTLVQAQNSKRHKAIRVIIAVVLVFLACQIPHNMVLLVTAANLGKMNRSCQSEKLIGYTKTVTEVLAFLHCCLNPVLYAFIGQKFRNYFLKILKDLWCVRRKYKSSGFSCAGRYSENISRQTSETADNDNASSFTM
Sequence of Beta-galactosidase (Q8VNN2 whole entry): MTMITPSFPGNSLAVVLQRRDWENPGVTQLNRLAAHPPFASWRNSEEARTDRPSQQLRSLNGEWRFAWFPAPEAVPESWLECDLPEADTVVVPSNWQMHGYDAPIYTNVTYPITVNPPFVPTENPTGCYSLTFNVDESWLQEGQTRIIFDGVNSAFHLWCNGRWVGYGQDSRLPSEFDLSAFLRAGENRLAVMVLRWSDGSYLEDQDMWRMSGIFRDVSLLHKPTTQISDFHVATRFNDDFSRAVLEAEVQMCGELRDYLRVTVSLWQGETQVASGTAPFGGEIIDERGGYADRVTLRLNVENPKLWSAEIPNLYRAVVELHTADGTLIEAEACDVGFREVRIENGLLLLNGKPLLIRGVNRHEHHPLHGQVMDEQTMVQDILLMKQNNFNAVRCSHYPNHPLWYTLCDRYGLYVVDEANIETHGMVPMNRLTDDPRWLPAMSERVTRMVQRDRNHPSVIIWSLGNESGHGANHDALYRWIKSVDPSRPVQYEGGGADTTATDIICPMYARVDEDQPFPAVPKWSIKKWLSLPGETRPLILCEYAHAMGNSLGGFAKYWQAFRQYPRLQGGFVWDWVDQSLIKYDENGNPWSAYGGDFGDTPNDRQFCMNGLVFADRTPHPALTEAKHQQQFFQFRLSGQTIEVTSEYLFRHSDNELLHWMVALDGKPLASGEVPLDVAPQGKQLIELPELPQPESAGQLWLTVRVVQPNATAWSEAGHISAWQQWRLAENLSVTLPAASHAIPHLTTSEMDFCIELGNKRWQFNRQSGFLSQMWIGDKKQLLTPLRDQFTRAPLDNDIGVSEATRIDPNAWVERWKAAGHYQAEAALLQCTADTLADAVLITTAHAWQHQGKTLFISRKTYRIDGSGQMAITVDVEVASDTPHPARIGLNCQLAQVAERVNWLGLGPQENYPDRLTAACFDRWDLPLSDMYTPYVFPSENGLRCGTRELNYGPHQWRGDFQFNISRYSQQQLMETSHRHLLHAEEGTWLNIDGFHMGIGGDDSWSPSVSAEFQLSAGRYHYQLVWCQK
Sequence of Oxytocin receptor (P30559 whole entry): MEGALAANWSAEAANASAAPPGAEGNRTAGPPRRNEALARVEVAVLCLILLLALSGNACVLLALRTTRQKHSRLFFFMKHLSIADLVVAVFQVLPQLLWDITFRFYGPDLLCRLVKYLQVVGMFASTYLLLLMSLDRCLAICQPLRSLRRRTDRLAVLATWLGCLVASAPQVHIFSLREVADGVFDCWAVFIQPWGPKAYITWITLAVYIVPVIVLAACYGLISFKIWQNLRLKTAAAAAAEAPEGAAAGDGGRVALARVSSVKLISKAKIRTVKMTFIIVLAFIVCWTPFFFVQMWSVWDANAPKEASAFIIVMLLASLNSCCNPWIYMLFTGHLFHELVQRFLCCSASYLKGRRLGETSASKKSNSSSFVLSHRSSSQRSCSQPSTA
Sequence of Serine/threonine-protein phosphatase (Q9BPW0 whole entry): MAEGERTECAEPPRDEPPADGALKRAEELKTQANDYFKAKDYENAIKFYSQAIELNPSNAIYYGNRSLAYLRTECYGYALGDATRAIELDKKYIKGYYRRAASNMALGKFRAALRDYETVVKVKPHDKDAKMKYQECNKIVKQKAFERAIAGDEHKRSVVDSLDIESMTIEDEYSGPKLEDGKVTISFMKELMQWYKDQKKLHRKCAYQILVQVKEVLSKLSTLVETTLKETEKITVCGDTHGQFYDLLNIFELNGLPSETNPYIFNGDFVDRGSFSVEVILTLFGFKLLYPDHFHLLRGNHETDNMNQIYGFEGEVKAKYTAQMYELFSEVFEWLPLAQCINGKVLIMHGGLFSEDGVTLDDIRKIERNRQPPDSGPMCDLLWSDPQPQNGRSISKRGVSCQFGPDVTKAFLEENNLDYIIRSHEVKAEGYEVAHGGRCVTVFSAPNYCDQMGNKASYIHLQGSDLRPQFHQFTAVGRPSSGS
Sequence of Neuropeptide Y receptor type 1 (P25929 whole entry): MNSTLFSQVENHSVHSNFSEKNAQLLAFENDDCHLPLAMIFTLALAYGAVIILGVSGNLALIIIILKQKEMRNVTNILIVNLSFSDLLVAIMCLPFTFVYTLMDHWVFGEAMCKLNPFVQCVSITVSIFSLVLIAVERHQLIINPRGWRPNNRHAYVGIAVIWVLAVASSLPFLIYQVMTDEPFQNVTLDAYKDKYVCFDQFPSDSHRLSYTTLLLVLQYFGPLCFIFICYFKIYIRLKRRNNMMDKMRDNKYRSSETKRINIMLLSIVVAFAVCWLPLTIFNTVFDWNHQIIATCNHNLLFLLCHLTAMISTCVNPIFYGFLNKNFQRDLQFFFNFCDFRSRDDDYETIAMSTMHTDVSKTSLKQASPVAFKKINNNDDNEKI
Sequence of Vasopressin V1a receptor (P37288 whole entry): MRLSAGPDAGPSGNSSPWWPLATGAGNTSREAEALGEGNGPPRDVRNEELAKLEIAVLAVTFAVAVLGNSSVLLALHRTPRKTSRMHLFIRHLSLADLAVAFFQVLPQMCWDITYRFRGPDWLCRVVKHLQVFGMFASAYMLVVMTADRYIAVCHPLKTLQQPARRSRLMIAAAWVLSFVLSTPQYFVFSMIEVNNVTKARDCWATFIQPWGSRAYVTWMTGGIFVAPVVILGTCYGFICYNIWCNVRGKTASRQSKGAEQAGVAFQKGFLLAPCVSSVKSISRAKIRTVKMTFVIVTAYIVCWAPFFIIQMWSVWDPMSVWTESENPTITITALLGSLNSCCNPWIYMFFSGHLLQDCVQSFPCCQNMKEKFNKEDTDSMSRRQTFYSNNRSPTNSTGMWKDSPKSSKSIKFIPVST

For `Cc1nnc(NC(=O)C2C3C=CC(O3)C2C(=O)O)s1` (stereo not drawn), the IC50 [1] was > 67 µM (not active) and the IC50 [2] was > 67 µM (not active).

With `O=C(CSc1nccn1-c1ncc(C(F)(F)F)cc1Cl)c1ccc(Br)cc1` the EC50 [3] was 7.85 µM (active), the EC50 [4] was 0.233 µM (active) and the EC50 [5] was 0.247 µM (active). For the same molecule, the IC50 [6] was > 66.6 µM (inactive) and the IC50 [7] was > 66.6 µM (inactive).

In the case of `Cc1ccc2nsnc2c1NC(=O)c1ccc(-c2cc(Cl)ccc2Cl)o1`, the EC50 [8] is reported as 6.11 µM (inconclusive), the IC50 [9] is reported as 4.64 µM (active) and the IC50 [10] is reported as 18 µM (active). The EC50 [11] was > 55.7 µM (not active), the EC50 [12] was 14.4 µM (inconclusive) and the EC50 [13] was 5.89 µM (active). The EC50 [14] was 3.86 µM (inconclusive).

With `COc1ncccc1-c1nnn(-c2ccc(Cl)c(Cl)c2)n1` the IC50 [15] was > 100 µM (not active) and the IC50 [16] was > 100 µM (not active).

For `Cc1cccc(Nc2nc(N)c([N+](=O)[O-])c(NCc3ccccc3)n2)c1`, the AC50 [17] was 25 µM (active).

For `O=S(=O)(c1cccc(NC(=S)N2CCN(c3cccc(Cl)c3)CC2)c1)C(F)F`, the EC50 [18] was > 35.4 µM (not active), the CC50 [19] was > 40 µM (active) and the EC50 [20] was > 35.4 µM (not active). For the same molecule, the EC50 [21] was > 35.4 µM (not active).

For `COc1ccnc(Oc2ccc(F)cc2)c1C(=O)N=CNOCc1ccc(F)cc1`, the IC50 [22] was 30.3 µM (not active).

With `Oc1ccc(Cl)cc1CNCc1ccc(Cl)nc1` the EC50 [23] was 17.5 µM (not active) and the EC50 [24] was 19.5 µM (not active).

In the case of `CCOC(=O)c1cc2c(N)c(C(=O)c3ccc(Br)cc3)sc2nc1O`, the IC50 [25] is reported as 34 µM (active).

In the case of `COc1ccc2c(Cl)c(C(=O)N/N=C3\CCCC(=O)C3)sc2c1`, the IC50 [26] is reported as 26.2 µM (not active), the AC50 [27] is reported as 1.98 µM (active) and the IC50 [28] is reported as > 55.9 µM (not active).

Reference: ChEMBL document CHEMBL1201862, “PubChem BioAssay data set” (2004)
